{
  "source": "paper PMC12445744",
  "about": "“Molecular docking to homology models of human and Trypanosoma brucei ERK8 that identified ortholog-specific inhibitors” (PLOS Neglected Tropical Diseases, 2025)",
  "key": {"HsERK8 [1]": {"target": "T1, HsERK8 (Homo sapiens, UniProt Q8TD08)", "T1 construct": "plasmid pGEX2T expressing the full-length hERK8 coding region; made in house; host or cells: Escherichia coli Rosetta 2 (DE3)", "T1 sequence (Q8TD08 1-544)": "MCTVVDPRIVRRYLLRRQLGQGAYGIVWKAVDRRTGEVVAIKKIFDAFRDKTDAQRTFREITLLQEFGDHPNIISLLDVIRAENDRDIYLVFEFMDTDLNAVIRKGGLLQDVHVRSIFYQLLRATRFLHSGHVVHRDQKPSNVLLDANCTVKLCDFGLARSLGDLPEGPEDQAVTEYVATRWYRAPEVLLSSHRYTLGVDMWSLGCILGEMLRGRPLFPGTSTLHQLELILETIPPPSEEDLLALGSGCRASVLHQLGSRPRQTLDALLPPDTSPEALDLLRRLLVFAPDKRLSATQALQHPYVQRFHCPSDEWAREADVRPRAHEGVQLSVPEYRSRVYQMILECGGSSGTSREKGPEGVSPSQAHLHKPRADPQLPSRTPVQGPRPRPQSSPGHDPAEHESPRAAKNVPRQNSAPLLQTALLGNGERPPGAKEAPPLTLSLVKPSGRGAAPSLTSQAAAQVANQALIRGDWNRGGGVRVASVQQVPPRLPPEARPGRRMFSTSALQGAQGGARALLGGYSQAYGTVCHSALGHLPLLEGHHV", "settings": "cited from earlier work"}, "TbERK8 [2]": {"target": "T2, TbERK8 (Trypanosoma brucei brucei, UniProt Q38B88)", "T2 sequence (Q38B88 1-442)": "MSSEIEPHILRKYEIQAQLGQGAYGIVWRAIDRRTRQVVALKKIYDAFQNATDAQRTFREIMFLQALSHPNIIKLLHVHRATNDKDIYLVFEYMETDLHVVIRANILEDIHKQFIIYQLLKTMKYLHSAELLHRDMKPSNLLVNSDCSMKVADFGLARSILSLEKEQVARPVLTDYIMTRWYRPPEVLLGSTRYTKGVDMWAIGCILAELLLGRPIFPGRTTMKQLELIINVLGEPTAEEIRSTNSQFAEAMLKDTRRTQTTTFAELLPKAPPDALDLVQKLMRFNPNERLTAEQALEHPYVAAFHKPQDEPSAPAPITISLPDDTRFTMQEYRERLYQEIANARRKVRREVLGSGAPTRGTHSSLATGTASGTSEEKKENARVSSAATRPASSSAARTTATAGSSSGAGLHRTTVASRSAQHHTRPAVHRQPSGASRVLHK", "settings": "cited from earlier work"}, "T. brucei": {"test_system": "T. brucei", "settings": "cited from earlier work"}, "TbERK8 [3]": {"target": "T2, TbERK8", "assay": "Luciferase-based kinase inhibition assay (ATP luminescence), GST-tagged TbERK8 with MBP substrate", "format": "biochemical", "set-up": "raw luminescence, TbERK8: unit of the concentration uncertain", "settings": "for raw luminescence, TbERK8: sheet Kinase_glo_080924_IFPS (2), replicate wells", "protocol": "(§1) Escherichia coli strain Rosetta 2 (DE3) (Cat# 71397, MilliporeSigma, Burlington, MA) was transformed with the plasmid pGEX2T expressing the full-length hERK8 coding region or pGSTAg expressing the full-length TbERK8 coding region. One liter of Terrific Broth media containing 100 μg/ml Ampicillin and 30 μg/ml chloramphenicol in 2 L baffled flasks was inoculated with 25 mL from an overnight culture of Rosetta 2 strains harboring either the pGEX2T-hERK8 or pGSTAg-TbERK8 plasmid. Two baffled flasks were inoculated with each overnight strain and incubated and shaken at 175 RPM in a New Brunswick Innova 44R Incubator Shaker (Fischer Scientific, Pittsburgh, PA) at 37 °C until the cultures reached an O.D.600 of 0.94. Once the cultures in the flask reached the target O.D.600, the flasks were cooled to 4 °C in an ice water bath. The cooled cultures were induced by adding isopropyl β-D-1-thiogalactopyranoside (IPTG) to a final concentration of 0.1 mM and shaken at 16 °C for 16 hours at 175 RPM in a New Brunswick Innova 44R Incubator Shaker (Fischer Scientific, Pittsburgh, PA). On the next day, the cultures were pelleted by centrifugation at 9000 xg in a JLA 10.500 rotor (Beckman Coulter; Brea, CA), and the media was decanted. The pellet was flash-frozen in liquid nitrogen and then thawed on ice. The thawed pellet was resuspended in lysis buffer (25 mM Tris, 75 mM NaCl, 0.5% TritonX-100 and 0.5% Nonidet P-40, 1 mM phenylmethanesulfonyl fluoride, 1 mM benzamidine⋅HCl) and lysed using a microfluidizer M-110P from Microfluidics (Westwood, MA). The crude lysates were clarified by centrifugation at 140,000 xg in a 45Ti rotor (Beckman Coulter, Brea, CA) for 30 min at 4°C. The clarified lysate was loaded by gravity to a 3 mL glutathione agarose resin column (Cat# G-250–10, GOLDBIO, St. Louis, MO) formed in a 1.5 × 20 cm glass chromatography column (Cat# 7371522, Bio-Rad, Hercules, CA). The column was washed with 30 mL of PBS (pH 7.4) containing 1 mM DTT. Elution buffer (50 mM Tris buffer pH 8.0 containing 10 mM reduced glutathione and 1 mM DTT was added to the washed column), and 1 mL fractions were collected by gravity and examined by SDS-PAGE stained by Coomassie dye. Peak fractions pooled from the elution were dialyzed (4x 1:500 dilutions) in kinase buffer (30 mM Tris, pH 7.4, 10 mM MgCl2, 1 mM DTT, 5% glycerol).\n(§2) We performed kinase assays in buffer K (30 mM Tris pH 7.4, 10 mM MgCl2, 1 mM DTT, 5% glycerol, 50 μM ATP, and 0.1 mg/mL BSA) at 30°C for 30 min in 30 μL reactions. GST-tagged HsERK8 and TbERK8 were tested using myelin basic protein (MBP) (Cat# 13–110, Millipore, Darmstadt, Germany) as the substrate at increasing concentrations to determine the optimal activity for the assay. ATP consumption was determined by adding equal volumes of the kinase assay reagent (Promega, Cat# V5601, Madison, WI) following the manufacturer’s protocol. Luminescence was measured using the microplate reader (SpectraMax L, Molecular Devices, Sunnyvale, CA).\n(§3) These compounds were screened for kinase inhibition utilizing a luciferase-based assay. Briefly, the kinases were tested using MBP as the substrate at a 14-fold molar excess in 384-well flat-bottom white plates (BRANDTECH Scientific, Cat# 781681, Essex, CT). These compounds were tested at concentrations ranging from […] to 150 nM. The kinases plus MBP substrate reactions were incubated with each inhibitor for 30 minutes at 30°C. Equal volumes of kinase assay mix Promega (Cat# V5601, Madison, WI) were added to the kinase/inhibitor reaction after 30 minutes, following the manufacturer’s protocol. ATP luminescence was measured using a microplate reader (SpectraMax L, Molecular Devices, Sunnyvale, CA). IC50 values were calculated from assays done in triplicate by fitting the data using Prism 8.1.1 (GraphPad)."}, "HsERK8 [4]": {"target": "T1, HsERK8", "assay": "Luciferase-based kinase inhibition assay (ATP luminescence), GST-tagged HsERK8 with MBP substrate", "format": "biochemical", "settings": "for raw luminescence, HsERK8: sheet Kinase_glo_080924_IFPS (2), replicate wells", "protocol": "as §1, §2, §3"}, "[5]": {"settings": "at any tested concentration (10 mM to 150 nM)"}},
  "note": "Where “and” joins values, the source holds several entries; their conditions need not be identical. Identical values can stand only once.",
  "data": [
    {"molecule": "Cc1cc(Nc2nc(N[C@@H](C)c3ccc(F)cc3)c(C#N)cc2F)n[nH]1", "note": "[AZ960, (S)-5-Fluoro-2-(1-(4-fluorophenyl)ethylamino)-6-(5-methyl-1H-pyrazol-3-ylamino)nicotinonitrile]", "values": [
      {"measurement": "inhibition of HsERK8", "setting": "HsERK8 [1]", "value": "inhibiting HsERK8 poorly"},
      {"measurement": "IC50", "setting": "TbERK8 [2]; read-out: IC50 for TbERK8 (published)", "value": 120, "unit": "nM"},
      {"measurement": "effect on T. brucei parasite", "setting": "T. brucei", "value": "killed the parasite"}
    ]},
    {"molecule": "Cn1cc(C2=C(c3cn(CCCSC(=N)N)c4ccccc34)C(=O)NC2=O)c2ccccc21", "note": "[Ro318220, 3-{3-[4-(1-Methyl-1H-indol-3-yl)-2,5-dioxo-2,5-dihydro-1H-pyrrol-3-yl]-1H-indol-1-yl}propyl carbamimidothioate]", "values": [
      {"measurement": "greater potency inhibiting HsERK8 than TbERK8", "setting": "HsERK8 [1]; HsERK8 over TbERK8", "value": "100–300 fold"},
      {"measurement": "IC50", "setting": "HsERK8 [1]; read-out: IC50 for HsERK8 (reported)", "value": "5 to 10", "unit": "nM"}
    ]},
    {"molecule": "C[C@]12CCC(=O)C=C1CC[C@H]1[C@@H]3CC[C@](O)(C(=O)CO)[C@@]3(C)C[C@H](O)[C@@]12F", "note": "[Fludrocortisone]", "values": [
      {"measurement": "raw luminescence, TbERK8", "setting": "TbERK8 [3]; 0.00015 (unit uncertain) compound", "value": "1859.59 RLU and 2054.98 RLU and 1825.9 RLU"},
      {"measurement": "raw luminescence, TbERK8", "setting": "TbERK8 [3]; 0.00061 (unit uncertain) compound", "value": "756.861 RLU and 669.272 RLU and 696.222 RLU"},
      {"measurement": "raw luminescence, TbERK8", "setting": "TbERK8 [3]; 0.00244 (unit uncertain) compound", "value": "839.958 RLU and 756.861 RLU and 772.582 RLU"},
      {"measurement": "raw luminescence, TbERK8", "setting": "TbERK8 [3]; 0.00977 (unit uncertain) compound", "value": "471.634 RLU and 512.06 RLU and 359.34 RLU"},
      {"measurement": "raw luminescence, TbERK8", "setting": "TbERK8 [3]; 0.03906 (unit uncertain) compound", "value": "947.761 RLU and 727.664 RLU and 806.27 RLU"},
      {"measurement": "raw luminescence, TbERK8", "setting": "TbERK8 [3]; 0.15625 (unit uncertain) compound", "value": "579.437 RLU and 552.486 RLU and 756.861 RLU"},
      {"measurement": "raw luminescence, TbERK8", "setting": "TbERK8 [3]; 0.62500 (unit uncertain) compound", "value": "736.648 RLU and 693.976 RLU and 673.763 RLU"},
      {"measurement": "raw luminescence, TbERK8", "setting": "TbERK8 [3]; 2.50000 (unit uncertain) compound", "value": "1122.94 RLU and 1073.53 RLU and 1107.22 RLU"},
      {"measurement": "raw luminescence, TbERK8", "setting": "TbERK8 [3]; 10.00000 (unit uncertain) compound, signal = ATP left", "value": "4505.23 RLU and 4303.1 RLU and 4100.97 RLU"},
      {"measurement": "inhibition of kinase activity of TbERK8", "setting": "TbERK8 [3]; [5]", "value": "did not inhibit"},
      {"measurement": "raw luminescence, HsERK8", "setting": "HsERK8 [4]; 0.00015 mM compound", "value": "3640.57 RLU and 3844.94 RLU and 3813.5 RLU"},
      {"measurement": "raw luminescence, HsERK8", "setting": "HsERK8 [4]; 0.00061 mM compound", "value": "4118.94 RLU and 4395.18 RLU and 4579.35 RLU"},
      {"measurement": "raw luminescence, HsERK8", "setting": "HsERK8 [4]; 0.00244 mM compound", "value": "4696.13 RLU and 4963.39 RLU and 5212.68 RLU"},
      {"measurement": "raw luminescence, HsERK8", "setting": "HsERK8 [4]; 0.00977 mM compound", "value": "4772.49 RLU and 5547.32 RLU and 5378.88 RLU"},
      {"measurement": "raw luminescence, HsERK8", "setting": "HsERK8 [4]; 0.03906 mM compound", "value": "6005.48 RLU and 7079.01 RLU and 7018.37 RLU"},
      {"measurement": "raw luminescence, HsERK8", "setting": "HsERK8 [4]; 0.15625 mM compound", "value": "6266 RLU and 7171.09 RLU and 7216.01 RLU"},
      {"measurement": "raw luminescence, HsERK8", "setting": "HsERK8 [4]; 0.62500 mM compound", "value": "7168.84 RLU and 8628.66 RLU and 8372.63 RLU"},
      {"measurement": "raw luminescence, HsERK8", "setting": "HsERK8 [4]; 2.50000 mM compound", "value": "6252.52 RLU and 7644.97 RLU and 7582.08 RLU"},
      {"measurement": "raw luminescence, HsERK8", "setting": "HsERK8 [4]; 10.00000 mM compound, signal = ATP left", "value": "11251.8 RLU and 11631.4 RLU and 11334.9 RLU"},
      {"measurement": "inhibition of kinase activity of HsERK8", "setting": "HsERK8 [4]; [5]", "value": "did not inhibit"}
    ]},
    {"molecule": "Cc1ncc(-c2ccnc(Nc3ccc(S(C)(=O)=O)cc3)n2)n1C(C)C", "note": "[AZD5438]", "values": [
      {"measurement": "inhibition of HsERK8", "setting": "HsERK8 [1]", "value": "potent inhibitor"},
      {"measurement": "inhibition of TbERK8", "setting": "TbERK8 [2]", "value": "potent inhibitor"}
    ]}
  ]
}
